Measurements published in US6962713B2, “Spot-on formulations for combating parasites” (Merial, priority 1919, dated 2005).
Marks after values point to notes of the source that are not given here.

Key:
heartworms = settings: Cardomec oral, 6 μg.kg^−1 of ivermectin, dog; known; cited from earlier work
[1] = tested on: gastrointestinal nematodes; settings: Ivomec subcutaneous, 400 μg.kg^−1 of ivermectin, dog; known; cited from earlier work
[2] = Plasma kinetics of ivermectin after spot-on application at different doses in combination with fipronil to dogs; type: in vivo, dog; settings: for Cmax, Mean: spot-on with fipronil 10 mg.kg^−1, dogs, mean of 3; for t½, Mean: harmonic mean
Method: This study was undertaken in order to assess the linearity of the percutaneous passage of ivermectin after spot-on application of different doses of ivermectin (100, 250, 500 and 1000 μg.kg^−1) in combination with fipronil (10 mg.kg^−1) to the dog. Furthermore, the possibility of control both heartworms and gastro-intestinal nematodes was evaluated.
Twelve male Beagle dogs (allocated into 4 groups of 3 animals were applied spot-on formulations combining ivermectin (0.1%, 0.25%, 0.5% and 1%) and fipronil (10%) at a dose rate of 0.1 ml.kg^−1 (i.e. 100, 250, 500 and 1000 μg.kg^−1 of ivermectin and 10 mg.kg^−1 of fipronil).
The formulations are as follows: […]
The formulations were applied at one spot onto the skin between the shoulder blades.
Blood samples were collected at intervals up to 56 days post treatment.
The determination of ivermectin was carried out by HPLC after an automated solid/liquid extraction, using fluorescence detection, with limit of quantification of 100 pg.ml^−1. The determination of fipronil and its sulfone metabolite (RM1602) was carried out by HPLC with UV detection, with a limit of quantification of 20 ng.ml^−1 for fipronil and RM1602. Both methods were validated in terms of specificity, extraction recovery, linearity, precision and accuracy.

[3] = Plasma kinetics of ivermectin after topical (spot-on) application 250 μg.kg in combination with fipronil to dogs; type: in vivo, dog; settings: spot-on 0.25% ivermectin + 10% fipronil, 5 dogs
Method: This study was undertaken in order to assess the pharmacokinetic behaviour of ivermectin and fipronil after a topical (spot-on) application of ivermectin in combination with fipronil to the dog.
Five male Beagle dogs were applied a spot-on formulation combining ivermectin and fipronil at a dose of 0.1 ml.kg^−1, i.e. 250 μg.kg and 10 mg.kg^−1 of ivermectin and fipronil, respectively. Blood samples were collected at intervals up to 28 days post-treatment. The determination of ivermectin in dog plasma was carried out by HPLC, using fluorescence detection, with a limit of quantification of 100 pg.ml^−1. The determination of fipronil and its sulfone metabolite (RM1602) was carried out by HPLC with UV detection with a limit of quantification of 20 ng.ml^−1 for fipronil and RM1602.
The formulation tested was as follows: […]

[4] = spot-on with fipronil, dogs, Group I 100 μg.kg^−1 ivermectin
[5] = spot-on with fipronil, dogs, Group I 100 μg.kg^−1 ivermectin, range over dogs
[6] = spot-on with fipronil, dogs, Group II 250 μg.kg^−1 ivermectin
[7] = spot-on with fipronil, dogs, Group II 250 μg.kg^−1 ivermectin, range over dogs
[8] = spot-on with fipronil, dogs, Group III 500 μg.kg^−1 ivermectin
[9] = spot-on with fipronil, dogs, Group III 500 μg.kg^−1 ivermectin, range over dogs
[10] = spot-on with fipronil, dogs, Group IV 1000 μg.kg^−1 ivermectin
[11] = spot-on with fipronil, dogs, Group IV 1000 μg.kg^−1 ivermectin, range over dogs

ivermectin
effective on heartworms (heartworms): 100% | effective on gastrointestinal nematodes [1]: effective | difference in parameters of absorption (Cmax and AUC) between the two studies ([2]; Example 7 versus Example 6, 250 μg.kg^−1 ivermectin spot-on, dogs): > 2 fold | plasma concentrations of ivermectin compared with Example 6 ([2]; same formulation (0.25% ivermectin, 10% fipronil), same dose 250 μg.kg^−1, dogs): much lower | Cmax, Mean ([2]; Group I 100 μg.kg^−1 ivermectin): 0.136 ng/mL | Cmax, Mean ([2]; Group II 250 μg.kg^−1 ivermectin): 0.508 ng/mL | Cmax, Mean ([2]; Group III 500 μg.kg^−1 ivermectin): 1.064 ng/mL | Cmax, Mean ([2]; Group IV 1000 μg.kg^−1 ivermectin): 1.802 ng/mL | AUC (0-Clast), Mean [2, 4]: 382 pg·days/mL | Tlast, Mean [2, 4]: 7 days | tmax, Mean [2, 4]: 7 days | AUC (0-Clast), Range [2, 5]: [0-775] pg.d.ml^−1 | Cmax, Range [2, 5]: [0-235] pg.ml^−1 | Tlast, Range [2, 5]: [5-9] d | tmax, Range [2, 5]: [5-9] d | t½, Mean [2, 6]: 9.8 (#) d | AUC (0-Clast), Mean [2, 6]: 7808 pg·days/mL | Tlast, Mean [2, 6]: 28 days | tmax, Mean ([2]; spot-on with fipronil, dogs, Group II 250 μg.kg^−1 ivermectin, aberant value of 21 days not taken into account): 4.5* d | AUC (0-Clast), Range [2, 7]: [4949-10019] pg.d.ml^−1 | Cmax, Range [2, 7]: [250-723] pg.ml^−1 | tmax, Range [2, 7]: [4-5] d | t½, Range [2, 7]: [6.4-35.0] d | t½, Mean [2, 8]: 11.4 (#) d | AUC (0-Clast), Mean [2, 8]: 17200 pg·days/mL | Tlast, Mean [2, 8]: 37 days | tmax, Mean [2, 8]: 5.7 days | AUC (0-Clast), Range [2, 9]: [9088-23274] pg.d.ml^−1 | Cmax, Range [2, 9]: [410-572] pg.ml^−1 | tmax, Range [2, 9]: [3-7] d | t½, Range [2, 9]: [9.0-16.5] d | t½, Mean [2, 10]: 10.2 (#) d | AUC (0-Clast), Mean [2, 10]: 29711 pg·days/mL | Tlast, Mean [2, 10]: 40 days | tmax, Mean [2, 10]: 3.3 days | AUC (0-Clast), Range [2, 11]: [16759-39734] pg.d.ml^−1 | Cmax, Range [2, 11]: [1669-1966] pg.ml^−1 | tmax, Range [2, 11]: [2-5] d | t½, Range [2, 11]: [7.6-12.2] d | mean AUC(0-Clast) ([2]; spot-on with fipronil, dogs, dose of 250 μg.kg^−1): 7808 pg·days/mL | t½, Mean ([3]; 250 μg.kg ivermectin, harmonic mean): 132 h | AUC(0-t), Mean ([3]; 250 μg.kg ivermectin, mean): 19218 pg·days/mL | AUC(0-∞), Mean ([3]; 250 μg.kg ivermectin, mean): 22842 pg·days/mL | Tlast, Mean ([3]; 250 μg.kg ivermectin, mean): 21 days | tmax, Mean ([3]; 250 μg.kg ivermectin, mean): 110 h | Cmax, Mean ([3]; 0.1 ml.kg^−1 (250 μg.kg ivermectin), mean): 1.618 ng/mL
